Source: patent publication US20220289715A1, “PESTICIDALLY ACTIVE PYRAZINE-AMIDE COMPOUNDS” (priority 2019, published 2022)

Experiments:
Type in all cases: in vivo
[1] = tested on: Diabrotica balteata (Corn Root Worm); assay: Example B1: Diabrotica balteata, spray on maize sprouts; conditions: 96 h, application rate of 200 ppm, L2 larvae, 4 days after infestation, read-out: control in at least one of the two categories (mortality or growth inhibition)
Description: Example B1: Diabrotica balteata (Corn Root Worm)
Maize sprouts placed onto an agar layer in 24-well microtiter plates were treated with aqueous test solutions prepared from 10,000 ppm DMSO stock solutions by spraying. After drying, the plates were infested with L2 larvae (6 to 10 per well). The samples were assessed for mortality and growth inhibition in comparison to untreated samples 4 days after infestation.
(§1) The following compounds gave an effect of at least 80% control in at least one of the two categories (mortality or growth inhibition) at an application rate of 200 ppm: […]

[2] = tested on: Chilo suppressalis (Striped Rice Stemborer); assay: Example B3: Chilo suppressalis, artificial diet; conditions: 144 h, application rate of 200 ppm, L2 larvae, 6 days after infestation, read-out: control in at least one of the three categories (mortality, anti-feedant effect, or growth inhibition)
Description: Example B3: Chilo suppressalis (Striped Rice Stemborer)
24-well microtiter plates with artificial diet were treated with aqueous test solutions prepared from 10,000 ppm DMSO stock solutions by pipetting. After drying, the plates were infested with L2 larvae (6-8 per well). The samples were assessed for mortality, anti-feeding effect, and growth inhibition in comparison to untreated samples 6 days after infestation. Control of Chilo suppressalis by a test sample is given when at least one of the categories mortality, anti-feedant effect, and growth inhibition is higher than the untreated sample.

[3] = tested on: Plutella xylostella (Diamond Back Moth); assay: Example B4: Plutella xylostella, artificial diet, 24-well; conditions: 192 h, application rate of 200 ppm, eggs, 8 days after infestation, read-out: control in at least one of the two categories (mortality or growth inhibition)
Description: Example B4: Plutella xylostella (Diamond Back Moth)
24-well microtiter plates with artificial diet were treated with aqueous test solutions prepared from 10,000 ppm DMSO stock solutions by pipetting. After drying, Plutella eggs were pipetted through a plastic stencil onto a gel blotting paper and the plate was closed with it. The samples were assessed for mortality and growth inhibition in comparison to untreated samples 8 days after infestation.
as §1

[4] = tested on: Spodoptera littoralis (Egyptian Cotton Leaf Worm); assay: Example B6: Spodoptera littoralis, spray on cotton leaf discs; conditions: foliar, 72 h, application rate of 200 ppm, L1 larvae, 3 days after infestation, read-out: control in at least one of the three categories (mortality, anti-feedant effect, or growth inhibition)
Description: Example B6: Spodoptera littoralis (Egyptian Cotton Leaf Worm)
Cotton leaf discs were placed onto agar in 24-well microtiter plates and sprayed with aqueous test solutions prepared from 10,000 ppm DMSO stock solutions. After drying the leaf discs were infested with five L1 larvae. The samples were assessed for mortality, anti-feeding effect, and growth inhibition in comparison to untreated samples 3 days after infestation. Control of Spodoptera littoralis by a test sample is given when at least one of the categories mortality, anti-feedant effect, and growth inhibition is higher than the untreated sample.

[5] = tested on: Plutella xylostella (Diamondback Moth); assay: Example B9: Plutella xylostella, artificial diet, 96-well; conditions: 216 h, application rate of 500 ppm, eggs/L1 larvae, 9 days after infestation
Description: Example B9: Plutella xylostella (Diamondback Moth)
96-well microtiter plates containing artificial diet were treated with aqueous test solutions, prepared from 10,000 ppm DMSO stock solutions, by a liquid handling robot. After drying, eggs (˜30 per well) were infested onto a netted lid which was suspended above the diet. The eggs hatch and L1 larvae move down to the diet. The samples were assessed for mortality 9 days after infestation.
The following compounds gave an effect of at least 80% mortality at an application rate of 500 ppm: […]

[6] = tested on: Euschistus heros (Neotropical Brown Stink Bug); assay: Example B2: Euschistus heros, spray on soybean leaves; conditions: 120 h, application rate of 200 ppm, N2 nymphs, 5 days after infestation, read-out: control in at least one of the two categories (mortality or growth inhibition)
Description: Example B2: Euschistus heros (Neotropical Brown Stink Bug)
Soybean leaves on agar in 24-well microtiter plates were sprayed with aqueous test solutions prepared from 10,000 ppm DMSO stock solutions. After drying the leaves were infested with N2 nymphs. The samples were assessed for mortality and growth inhibition in comparison to untreated samples 5 days after infestation.
as §1

[7] = tested on: Myzus persicae (Green Peach Aphid); assay: Example B10: Myzus persicae, sucrose solution, 96-well; conditions: 120 h, application rate of 50 ppm, 5 days after infestation
Excerpt: Example B10: Myzus persicae (Green Peach Aphid)
Test compounds prepared from 10,000 ppm DMSO stock solutions were applied by a liquid handling robot into 96-well microtiter plates and mixed with a sucrose solution. Parafilm was stretched over the 96-well microtiter plate and a plastic stencil with 96 holes was placed onto the plate. Aphids were sieved into the wells directly onto the Parafilm. The infested plates were closed with a gel blotting card and a second plastic stencil and then turned upside down. The samples were assessed for mortality 5 days after infestation.

CC(NC(=O)c1cc(C(F)(F)F)cc(C(F)(F)C2CC2)c1)c1nccnc1-n1nccn1 (centres unmarked) [Compound P17, 3-[cyclopropyl(difluoro)methyl]-N-[1-[3-(triazol-2-yl)pyrazin-2-yl]ethyl]-5-(trifluoromethyl)benzamide]
≥ 80%: percent control (mortality or growth inhibition) at 200 ppm [1] | percent control (mortality, anti-feedant effect or growth inhibition) at 200 ppm [2] | percent control (mortality or growth inhibition) at 200 ppm [3] | percent control (mortality, anti-feedant effect or growth inhibition) at 200 ppm [4] | mortality at 500 ppm [5]

CC(NC(=O)c1cc(C(F)(F)F)cc(C(F)(F)F)c1)c1nccnc1-n1cncn1 (centres unmarked) [Compound P46, N-[1-[3-(1,2,4-triazol-1-yl)pyrazin-2-yl]ethyl]-3,5-bis(trifluoromethyl)benzamide]
≥ 80%: percent control (mortality or growth inhibition) at 200 ppm [6] | percent control (mortality, anti-feedant effect or growth inhibition) at 200 ppm [2] | percent control (mortality or growth inhibition) at 200 ppm [3] | percent control (mortality, anti-feedant effect or growth inhibition) at 200 ppm [4]

CC(NC(=O)c1cc(C2CC2(F)F)cc(C(F)(F)F)c1)c1nccnc1-n1nccn1 (centres unmarked) [Compound P7, 3-(2,2-difluorocyclopropyl)-N-[1-[3-(triazol-2-yl)pyrazin-2-yl]ethyl]-5-(trifluoromethyl)benzamide]
≥ 80%: percent control (mortality or growth inhibition) at 200 ppm [1] | percent control (mortality, anti-feedant effect or growth inhibition) at 200 ppm [2] | percent control (mortality or growth inhibition) at 200 ppm [3] | percent control (mortality, anti-feedant effect or growth inhibition) at 200 ppm [4] | mortality at 500 ppm [5]

CC(NC(=O)c1cc(C(F)(F)F)nc(C2(C#N)CC2)c1)c1nccnc1-n1nccn1 (centres unmarked) [Compound P14, 2-(1-cyanocyclopropyl)-N-[1-[3-(triazol-2-yl)pyrazin-2-yl]ethyl]-6-(trifluoromethyl)pyridine-4-carboxamide]
≥ 80%: percent control (mortality or growth inhibition) at 200 ppm [1] | percent control (mortality or growth inhibition) at 200 ppm [6] | percent control (mortality, anti-feedant effect or growth inhibition) at 200 ppm [2] | percent control (mortality or growth inhibition) at 200 ppm [3] | percent control (mortality, anti-feedant effect or growth inhibition) at 200 ppm [4]

CC(NC(=O)c1cc(C(F)(F)F)cc(C(F)(F)F)c1)c1nccnc1-n1nc2ccccc2n1 (centres unmarked) [Compound P52, N-[1-[3-(benzotriazol-2-yl)pyrazin-2-yl]ethyl]-3,5-bis(trifluoromethyl)benzamide]
≥ 80%: percent control (mortality or growth inhibition) at 200 ppm [1] | percent control (mortality, anti-feedant effect or growth inhibition) at 200 ppm [2] | percent control (mortality or growth inhibition) at 200 ppm [3] | percent control (mortality, anti-feedant effect or growth inhibition) at 200 ppm [4] | mortality at 500 ppm [5]

CC(NC(=O)c1cc(Cl)cc(Cl)c1)c1nccnc1-n1nccn1 (centres unmarked) [Compound P20, 3,5-dichloro-N-[1-[3-(triazol-2-yl)pyrazin-2-yl]ethyl]benzamide]
≥ 80%: percent control (mortality or growth inhibition) at 200 ppm [1] | percent control (mortality or growth inhibition) at 200 ppm [6] | percent control (mortality, anti-feedant effect or growth inhibition) at 200 ppm [2] | percent control (mortality or growth inhibition) at 200 ppm [3] | percent control (mortality, anti-feedant effect or growth inhibition) at 200 ppm [4]

CC(NC(=O)c1cc(C(F)(F)F)cc(S(=O)(=O)C(F)(F)F)c1)c1nccnc1-n1nccn1 (centres unmarked) [Compound P13, N-[1-[3-(triazol-2-yl)pyrazin-2-yl]ethyl]-3-(trifluoromethyl)-5-(trifluoromethylsulfonyl)benzamide]
≥ 80%: percent control (mortality or growth inhibition) at 200 ppm [1] | percent control (mortality, anti-feedant effect or growth inhibition) at 200 ppm [2] | percent control (mortality or growth inhibition) at 200 ppm [3] | percent control (mortality, anti-feedant effect or growth inhibition) at 200 ppm [4] | mortality at 500 ppm [5]

COc1cc(OC)cc(C(=O)NC(C)c2nccnc2-n2nccn2)c1 (centres unmarked) [Compound P23, 3,5-dimethoxy-N-[1-[3-(triazol-2-yl)pyrazin-2-yl]ethyl]benzamide]
≥ 80%: percent control (mortality or growth inhibition) at 200 ppm [6] | mortality at 50 ppm [7]

CC(NC(=O)c1cc(Br)cc(OC(F)(F)F)c1)c1nccnc1-n1nccn1 (centres unmarked) [Compound P36, 3-bromo-N-[1-[3-(triazol-2-yl)pyrazin-2-yl]ethyl]-5-(trifluoromethoxy)benzamide]
≥ 80%: percent control (mortality or growth inhibition) at 200 ppm [1] | percent control (mortality, anti-feedant effect or growth inhibition) at 200 ppm [2] | percent control (mortality or growth inhibition) at 200 ppm [3] | percent control (mortality, anti-feedant effect or growth inhibition) at 200 ppm [4] | mortality at 500 ppm [5]

CC(NC(=O)c1cc(Cl)nc(C(F)(F)F)c1)c1nccnc1-n1nccn1 (centres unmarked) [Compound P22, 2-chloro-N-[1-[3-(triazol-2-yl)pyrazin-2-yl]ethyl]-6-(trifluoromethyl)pyridine-4-carboxamide]
≥ 80%: percent control (mortality or growth inhibition) at 200 ppm [1] | percent control (mortality, anti-feedant effect or growth inhibition) at 200 ppm [2] | percent control (mortality or growth inhibition) at 200 ppm [3] | percent control (mortality, anti-feedant effect or growth inhibition) at 200 ppm [4] | mortality at 500 ppm [5] | mortality at 50 ppm [7]

CC(NC(=O)c1cc(F)cc(C(F)(F)F)c1)c1nccnc1-n1nccn1 (centres unmarked) [Compound P26, 3-fluoro-N-[1-[3-(triazol-2-yl)pyrazin-2-yl]ethyl]-5-(trifluoromethyl)benzamide]
≥ 80%: percent control (mortality or growth inhibition) at 200 ppm [1] | percent control (mortality, anti-feedant effect or growth inhibition) at 200 ppm [2] | percent control (mortality or growth inhibition) at 200 ppm [3] | percent control (mortality, anti-feedant effect or growth inhibition) at 200 ppm [4] | mortality at 500 ppm [5] | mortality at 50 ppm [7]

CC(NC(=O)c1cc(C2CC2)nc(C(F)(F)F)c1)c1nccnc1-n1nccn1 (centres unmarked) [Compound P11, 2-cyclopropyl-N-[1-[3-(triazol-2-yl)pyrazin-2-yl]ethyl]-6-(trifluoromethyl)pyridine-4-carboxamide]
≥ 80%: percent control (mortality or growth inhibition) at 200 ppm [1] | percent control (mortality, anti-feedant effect or growth inhibition) at 200 ppm [2] | percent control (mortality or growth inhibition) at 200 ppm [3] | percent control (mortality, anti-feedant effect or growth inhibition) at 200 ppm [4] | mortality at 500 ppm [5]

CC(NC(=O)c1cc(Cl)cc(OC(F)(F)F)c1)c1nccnc1-n1nccn1 (centres unmarked) [Compound P33, 3-chloro-N-[1-[3-(triazol-2-yl)pyrazin-2-yl]ethyl]-5-(trifluoromethoxy)benzamide]
≥ 80%: percent control (mortality or growth inhibition) at 200 ppm [1] | percent control (mortality, anti-feedant effect or growth inhibition) at 200 ppm [2] | percent control (mortality or growth inhibition) at 200 ppm [3] | percent control (mortality, anti-feedant effect or growth inhibition) at 200 ppm [4] | mortality at 500 ppm [5]

CC(NC(=O)c1cc(Br)cc(Br)c1)c1nccnc1-n1nccn1 (centres unmarked) [Compound P38, 3,5-dibromo-N-[1-[3-(triazol-2-yl)pyrazin-2-yl]ethyl]benzamide]
≥ 80%: percent control (mortality or growth inhibition) at 200 ppm [1] | percent control (mortality, anti-feedant effect or growth inhibition) at 200 ppm [2] | percent control (mortality or growth inhibition) at 200 ppm [3] | percent control (mortality, anti-feedant effect or growth inhibition) at 200 ppm [4] | mortality at 500 ppm [5]
